Measurements published in ChEMBL document CHEMBL5291721, “A preclinical secondary pharmacology resource illuminates target-adverse drug reaction associations of marketed drugs” (Nat Commun, 2023).

How the values were obtained:
[1] = target: T1, Prostaglandin G/H synthase 1 (Rattus norvegicus, UniProt Q63921); type: functional
T1 sequence (Q63921 whole entry): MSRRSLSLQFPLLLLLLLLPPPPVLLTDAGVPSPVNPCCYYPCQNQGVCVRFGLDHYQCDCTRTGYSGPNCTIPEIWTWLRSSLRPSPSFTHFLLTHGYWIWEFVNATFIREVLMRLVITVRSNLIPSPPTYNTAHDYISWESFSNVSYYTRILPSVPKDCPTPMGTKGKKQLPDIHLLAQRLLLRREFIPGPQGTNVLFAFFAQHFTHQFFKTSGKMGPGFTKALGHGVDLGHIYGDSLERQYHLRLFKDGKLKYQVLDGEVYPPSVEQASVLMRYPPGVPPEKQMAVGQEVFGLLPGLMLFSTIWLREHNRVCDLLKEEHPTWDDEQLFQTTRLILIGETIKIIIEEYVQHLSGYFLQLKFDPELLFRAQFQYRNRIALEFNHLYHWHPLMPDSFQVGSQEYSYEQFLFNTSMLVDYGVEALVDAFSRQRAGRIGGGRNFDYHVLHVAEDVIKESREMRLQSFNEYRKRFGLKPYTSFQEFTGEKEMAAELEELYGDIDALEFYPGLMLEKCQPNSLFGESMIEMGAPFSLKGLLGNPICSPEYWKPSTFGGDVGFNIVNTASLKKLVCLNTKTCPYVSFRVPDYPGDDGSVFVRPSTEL

[2] = target: T2, Retinoic acid receptor beta (Homo sapiens, UniProt P10826); type: functional, cell-based
[3] = target: Retinoic acid receptor alpha (Homo sapiens, UniProt P10276); type: functional, cell-based
[4] = target: T2, Retinoic acid receptor beta; type: functional, cell-based; remark: listed apart in the source
[5] = target: Oxysterols receptor LXR-beta (Homo sapiens, UniProt P55055); type: functional
[6] = target: T3, Retinoic acid receptor gamma (Homo sapiens, UniProt P13631); type: functional, cell-based
[7] = target: T3, Retinoic acid receptor gamma; type: functional, cell-based; remark: listed apart in the source
[8] = target: T4, Peroxisome proliferator-activated receptor alpha (Homo sapiens, UniProt Q07869); type: functional
T4 sequence (Q07869 whole entry): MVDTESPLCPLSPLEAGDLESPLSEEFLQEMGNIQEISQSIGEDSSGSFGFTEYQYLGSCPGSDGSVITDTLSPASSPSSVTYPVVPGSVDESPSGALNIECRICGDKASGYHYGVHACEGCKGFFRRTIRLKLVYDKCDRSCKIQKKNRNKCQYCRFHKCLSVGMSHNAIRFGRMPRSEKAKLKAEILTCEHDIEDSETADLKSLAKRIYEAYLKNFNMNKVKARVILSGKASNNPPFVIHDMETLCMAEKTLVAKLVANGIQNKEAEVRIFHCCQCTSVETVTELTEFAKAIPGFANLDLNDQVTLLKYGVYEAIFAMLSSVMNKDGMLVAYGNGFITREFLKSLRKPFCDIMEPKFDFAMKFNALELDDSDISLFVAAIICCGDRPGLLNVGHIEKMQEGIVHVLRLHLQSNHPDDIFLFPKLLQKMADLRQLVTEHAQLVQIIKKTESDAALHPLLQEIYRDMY

[9] = target: T5, Muscarinic acetylcholine receptor M1 (Homo sapiens, UniProt P11229); type: functional, cell-based
T5 sequence (P11229 whole entry): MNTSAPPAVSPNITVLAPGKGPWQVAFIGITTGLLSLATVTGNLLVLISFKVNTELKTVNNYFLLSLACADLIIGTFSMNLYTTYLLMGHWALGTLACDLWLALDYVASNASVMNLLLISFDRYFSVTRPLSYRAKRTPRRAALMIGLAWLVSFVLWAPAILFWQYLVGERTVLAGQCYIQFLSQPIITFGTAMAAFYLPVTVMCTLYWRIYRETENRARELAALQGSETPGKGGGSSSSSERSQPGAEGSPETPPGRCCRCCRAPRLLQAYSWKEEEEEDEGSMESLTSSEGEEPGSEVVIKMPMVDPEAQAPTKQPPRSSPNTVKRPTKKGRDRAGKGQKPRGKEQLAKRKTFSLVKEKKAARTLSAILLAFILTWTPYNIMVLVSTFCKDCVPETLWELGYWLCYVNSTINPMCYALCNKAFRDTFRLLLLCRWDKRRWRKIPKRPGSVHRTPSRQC

[10] = target: T6, Muscarinic acetylcholine receptor M2 (Homo sapiens, UniProt P08172)
T6 sequence (P08172 whole entry): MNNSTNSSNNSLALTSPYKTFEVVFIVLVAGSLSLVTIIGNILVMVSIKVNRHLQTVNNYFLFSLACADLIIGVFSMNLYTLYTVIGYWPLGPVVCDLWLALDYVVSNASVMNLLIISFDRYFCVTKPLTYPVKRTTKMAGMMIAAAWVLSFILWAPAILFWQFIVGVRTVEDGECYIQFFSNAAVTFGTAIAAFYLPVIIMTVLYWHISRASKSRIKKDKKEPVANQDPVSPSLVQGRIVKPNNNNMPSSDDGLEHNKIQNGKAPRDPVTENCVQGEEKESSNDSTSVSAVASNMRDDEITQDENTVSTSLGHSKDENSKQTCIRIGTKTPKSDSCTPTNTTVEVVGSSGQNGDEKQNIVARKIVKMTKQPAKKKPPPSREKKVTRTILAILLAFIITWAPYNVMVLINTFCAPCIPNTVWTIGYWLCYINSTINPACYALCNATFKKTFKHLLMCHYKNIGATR
Note: assay procedure not described here.

T3 sequence (P13631 whole entry): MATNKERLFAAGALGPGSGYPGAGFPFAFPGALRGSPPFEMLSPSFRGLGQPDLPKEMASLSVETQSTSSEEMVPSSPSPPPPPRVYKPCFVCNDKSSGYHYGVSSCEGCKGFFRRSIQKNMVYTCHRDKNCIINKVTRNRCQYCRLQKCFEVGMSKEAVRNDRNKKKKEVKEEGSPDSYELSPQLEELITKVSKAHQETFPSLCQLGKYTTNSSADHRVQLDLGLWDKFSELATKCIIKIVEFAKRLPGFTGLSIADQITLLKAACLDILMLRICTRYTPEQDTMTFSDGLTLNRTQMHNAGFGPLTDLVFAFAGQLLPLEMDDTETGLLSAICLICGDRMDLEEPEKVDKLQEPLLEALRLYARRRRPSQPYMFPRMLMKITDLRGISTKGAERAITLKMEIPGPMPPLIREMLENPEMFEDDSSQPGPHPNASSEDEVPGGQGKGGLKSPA
T2 sequence (P10826 whole entry): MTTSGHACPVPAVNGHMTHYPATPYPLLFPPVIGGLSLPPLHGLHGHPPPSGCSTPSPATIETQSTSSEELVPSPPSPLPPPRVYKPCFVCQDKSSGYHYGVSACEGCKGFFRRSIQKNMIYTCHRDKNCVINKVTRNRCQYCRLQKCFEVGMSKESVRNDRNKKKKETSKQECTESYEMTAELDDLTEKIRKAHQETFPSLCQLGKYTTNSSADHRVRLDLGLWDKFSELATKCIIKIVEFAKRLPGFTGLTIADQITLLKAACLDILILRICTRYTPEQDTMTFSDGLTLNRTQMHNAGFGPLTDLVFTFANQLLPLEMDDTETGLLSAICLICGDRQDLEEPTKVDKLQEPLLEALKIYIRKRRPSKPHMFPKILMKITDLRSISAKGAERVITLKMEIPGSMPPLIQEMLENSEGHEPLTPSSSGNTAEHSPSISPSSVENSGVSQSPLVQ
Sequence of Oxysterols receptor LXR-beta (P55055 whole entry): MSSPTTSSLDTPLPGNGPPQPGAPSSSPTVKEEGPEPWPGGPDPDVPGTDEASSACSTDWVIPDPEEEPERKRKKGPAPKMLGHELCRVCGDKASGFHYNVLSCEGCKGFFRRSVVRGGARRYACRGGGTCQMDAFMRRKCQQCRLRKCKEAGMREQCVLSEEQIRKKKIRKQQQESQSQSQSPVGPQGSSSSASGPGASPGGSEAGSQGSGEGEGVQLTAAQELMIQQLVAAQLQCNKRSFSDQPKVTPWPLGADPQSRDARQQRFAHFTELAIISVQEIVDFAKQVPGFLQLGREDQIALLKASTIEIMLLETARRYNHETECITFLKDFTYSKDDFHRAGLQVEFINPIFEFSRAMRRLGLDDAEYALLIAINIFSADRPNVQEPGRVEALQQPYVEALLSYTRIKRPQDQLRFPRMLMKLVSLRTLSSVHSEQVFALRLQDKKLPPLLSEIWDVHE
Sequence of Retinoic acid receptor alpha (P10276 whole entry): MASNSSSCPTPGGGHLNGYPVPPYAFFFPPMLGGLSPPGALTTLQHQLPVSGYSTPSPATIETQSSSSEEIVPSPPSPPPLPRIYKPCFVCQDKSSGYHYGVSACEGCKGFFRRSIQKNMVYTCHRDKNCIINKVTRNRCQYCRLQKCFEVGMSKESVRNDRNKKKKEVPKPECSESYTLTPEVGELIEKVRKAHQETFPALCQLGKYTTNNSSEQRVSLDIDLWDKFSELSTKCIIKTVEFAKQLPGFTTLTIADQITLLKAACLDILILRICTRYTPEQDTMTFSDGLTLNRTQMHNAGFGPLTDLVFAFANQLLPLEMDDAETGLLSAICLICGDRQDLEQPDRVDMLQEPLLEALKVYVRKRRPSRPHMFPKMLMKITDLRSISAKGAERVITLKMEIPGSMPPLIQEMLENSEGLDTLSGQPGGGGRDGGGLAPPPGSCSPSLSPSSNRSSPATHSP

## CN(CCOc1ccc(CC2SC(=O)NC2=O)cc1)c1ccccn1 (stereo not given) [ROSIGLITAZONE]
[1]
  AC50: > 30 µM

## COc1cc(C(=O)NS(=O)(=O)c2ccccc2C)ccc1Cc1cn(C)c2ccc(NC(=O)OC3CCCC3)cc12 [ZAFIRLUKAST]
[2]
  AC50: 13 µM
[3]
  AC50: > 30 µM
[4]
  AC50: > 30 µM
[5]
  AC50: > 30 µM
[6]
  AC50: > 30 µM
[7]
  AC50: > 30 µM
[8]
  AC50: > 30 µM

## O=C1Cc2cc(CCN3CCN(c4nsc5ccccc45)CC3)c(Cl)cc2N1 [ZIPRASIDONE]
[9]
  AC50: > 30 µM
[10]
  AC50: 6.3 µM
